Legend:
[1] = target: Serotonin 2 (5-HT2) receptor (Rattus norvegicus, UniProt P30994+P08909+P14842); assay: Inhibition of [3H]spiperone binding to 5-hydroxytryptamine 2 receptor from rat cortical membranes; assay type: cell membranes, Membrane
[2] = target: T1, Adrenergic receptor alpha-1 (Rattus norvegicus, UniProt P15823+P23944+P43140); assay: Inhibition of [3H]prazosin binding to alpha-1 adrenergic receptor from rat cortical membranes; assay type: cell membranes, Membrane
T1 sequence (P15823 whole entry): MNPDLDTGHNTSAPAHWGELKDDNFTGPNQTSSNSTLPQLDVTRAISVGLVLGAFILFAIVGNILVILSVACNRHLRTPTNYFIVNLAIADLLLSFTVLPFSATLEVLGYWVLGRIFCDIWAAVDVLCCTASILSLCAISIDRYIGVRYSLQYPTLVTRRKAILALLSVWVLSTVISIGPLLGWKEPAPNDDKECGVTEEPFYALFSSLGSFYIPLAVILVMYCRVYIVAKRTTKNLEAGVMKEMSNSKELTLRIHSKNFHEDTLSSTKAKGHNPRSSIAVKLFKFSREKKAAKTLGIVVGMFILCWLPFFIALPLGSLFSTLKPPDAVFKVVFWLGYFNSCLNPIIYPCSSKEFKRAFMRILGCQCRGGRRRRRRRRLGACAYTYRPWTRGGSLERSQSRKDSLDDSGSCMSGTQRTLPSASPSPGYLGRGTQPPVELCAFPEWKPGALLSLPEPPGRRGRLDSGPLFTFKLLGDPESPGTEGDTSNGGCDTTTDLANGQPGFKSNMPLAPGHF
T1 sequence (P23944 whole entry): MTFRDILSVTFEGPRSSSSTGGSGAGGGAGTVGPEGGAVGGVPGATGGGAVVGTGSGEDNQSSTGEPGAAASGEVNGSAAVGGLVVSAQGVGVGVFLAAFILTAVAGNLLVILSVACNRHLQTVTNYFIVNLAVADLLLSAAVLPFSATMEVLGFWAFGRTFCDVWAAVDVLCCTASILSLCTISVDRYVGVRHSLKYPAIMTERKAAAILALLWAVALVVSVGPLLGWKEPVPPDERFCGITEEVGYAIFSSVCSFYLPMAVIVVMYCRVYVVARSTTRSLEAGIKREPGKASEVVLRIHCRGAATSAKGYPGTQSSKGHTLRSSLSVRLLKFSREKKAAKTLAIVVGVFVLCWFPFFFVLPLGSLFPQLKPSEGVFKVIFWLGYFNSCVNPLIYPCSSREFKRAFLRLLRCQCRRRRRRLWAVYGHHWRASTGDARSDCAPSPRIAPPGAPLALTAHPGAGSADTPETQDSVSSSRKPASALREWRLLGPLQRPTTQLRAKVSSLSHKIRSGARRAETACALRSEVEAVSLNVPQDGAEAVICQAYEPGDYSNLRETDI
T1 sequence (P43140 whole entry): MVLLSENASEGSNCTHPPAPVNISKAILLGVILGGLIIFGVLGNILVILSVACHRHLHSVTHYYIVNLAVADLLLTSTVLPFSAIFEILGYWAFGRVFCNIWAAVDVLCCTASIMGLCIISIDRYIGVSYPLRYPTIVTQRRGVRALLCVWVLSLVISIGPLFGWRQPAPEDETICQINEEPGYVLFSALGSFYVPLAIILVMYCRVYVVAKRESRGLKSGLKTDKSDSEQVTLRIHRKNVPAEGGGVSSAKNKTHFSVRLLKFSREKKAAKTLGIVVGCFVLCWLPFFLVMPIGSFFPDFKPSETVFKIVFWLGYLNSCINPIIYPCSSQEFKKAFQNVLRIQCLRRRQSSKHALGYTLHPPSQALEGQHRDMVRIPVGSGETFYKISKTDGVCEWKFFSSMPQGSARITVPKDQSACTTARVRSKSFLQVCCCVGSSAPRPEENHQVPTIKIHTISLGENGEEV

D(2) dopamine receptor = D(2) dopamine receptor (Rattus norvegicus, UniProt P61169); assay: Inhibition of [3H]spiperone binding to Dopamine receptor D2 from rat striatal membranes; assay type: cell membranes, Membrane
Sequence of D(2) dopamine receptor (P61169 whole entry): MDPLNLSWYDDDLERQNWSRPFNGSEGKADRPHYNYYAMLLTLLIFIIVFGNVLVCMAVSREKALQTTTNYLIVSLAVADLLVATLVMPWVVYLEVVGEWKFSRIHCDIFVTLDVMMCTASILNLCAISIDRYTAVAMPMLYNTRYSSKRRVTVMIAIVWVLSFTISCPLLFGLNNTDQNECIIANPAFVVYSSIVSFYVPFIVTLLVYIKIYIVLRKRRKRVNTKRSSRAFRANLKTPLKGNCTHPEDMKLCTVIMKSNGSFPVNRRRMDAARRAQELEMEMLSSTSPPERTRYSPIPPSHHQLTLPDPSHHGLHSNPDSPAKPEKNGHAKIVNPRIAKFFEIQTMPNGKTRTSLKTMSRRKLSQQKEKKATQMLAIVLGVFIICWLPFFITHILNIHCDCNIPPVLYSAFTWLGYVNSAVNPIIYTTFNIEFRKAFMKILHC

Mus musculus = species: Mus musculus; assay: Inhibition of methyl phenidate induced stereotyped gnawing in mice; assay type: functional
Rattus norvegicus [3] = assay: Percent reduction of diastolic arterial blood pressure(DAP) in spontaneously hypertensive rat after 10 min at intraperitoneal administration of 5 mg/kg; assay type: functional
Rattus norvegicus [4] = assay: Percent reduction of systolic arterial blood pressure(SAP) in spontaneously hypertensive rat after 10 min at intraperitoneal administration of 5 mg/kg; assay type: functional
Rattus norvegicus [5] = assay: Inhibition of 5-HT induced pressor response in pithed rats, after intravenous administration, activity is expressed as ED50; assay type: functional
Rattus norvegicus [6] = species: Rattus norvegicus; assay: Inhibition of L-5-HTP (L-5-hydroxytryptophan) induced head twitches in rat; assay type: functional
Rattus norvegicus [7] = species: Rattus norvegicus; assay: Ratio of phenylephrine ED50/ 5-HT ED50; assay type: functional
Rattus norvegicus [8] = assay: Inhibition of 5-HT induced pressor response in pithed rats, after intravenous administration of 0.02 mg/kg; assay type: functional
Rattus norvegicus [9] = assay: Inhibition of phenylephrine induced pressor response in pithed rats (following i.v. administration of […]); assay type: functional; conditions: route intravenous
Rattus norvegicus [10] = assay: Percent reduction of blood pressure in spontaneously hypertensive rat after 10 min at intraperitoneal administration of 5 mg/kg; assay type: functional
Rattus norvegicus [11] = assay: Inhibition of 5-HT induced pressor response in pithed rats, after intravenous administration; assay type: functional
[12] = Rattus norvegicus, read-out: ED50

Structure (SMILES) | IC50 [1] | IC50 [2] | IC50 (D(2) dopamine receptor) | ED50 (Mus musculus) | Increase (Rattus norvegicus [3]) | Reduction (Rattus norvegicus [4]) | ED50 (Rattus norvegicus [5]) | ED50 (Rattus norvegicus [6]) | Reduction (Rattus norvegicus [3]) | Ratio (Rattus norvegicus [7]) | Change (Rattus norvegicus [8]) | Change (Rattus norvegicus [9]) | Reduction (Rattus norvegicus [10]) | ED50 (Rattus norvegicus [6]; [12]) | ED50 (Rattus norvegicus [11]) | Increase (Rattus norvegicus [4])
CN1CCN(CCN2CCN([C@@H]3C[C@@H](c4ccc(F)cc4)c4ccc(F)cc43)CC2)C1=O | 0.01 µM | 0.011 µM | 0.038 µM | – | – | – | 2.2 µmol/kg | – | – | 550 | – | -29% | -32% | 0.023 µmol/kg | 0.0043 µmol/kg | –
CN1CCN(CCN2CCN([C@H]3C[C@H](c4ccc(F)cc4)c4ccc(F)cc43)CC2)C1=O | 0.41 µM | 1.3 µM | 8.5 µM | > 91 µmol/kg | – | – | – | > 45 µmol/kg | -1% | – | -6% | 72% | – | – | – | 1%
O=C1NCCN1CCN1CCN(C2CCc3ccccc32)CC1 (stereo not given) | 5.1 µM | – | 62 µM | > 127 µmol/kg | 6% | – | – | > 8 µmol/kg | – | – | – | – | – | – | – | 5%
O=C1NCCN1CCN1CCN(C2CC(c3ccc(F)cc3)c3ccccc32)CC1 (stereo not given) | 0.0042 µM | 0.033 µM | 0.93 µM | > 98 µmol/kg | – | -33% | 3.1 µmol/kg | – | -43% | 129 | – | – | – | – | – | –
CN1CCN(CCN2CCN(C3CC(c4ccc(F)cc4)c4ccc(F)cc43)CC2)C1=O.Cl.Cl (stereo not given) | 0.0033 µM | 0.011 µM | 0.26 µM | > 78 µmol/kg | – | – | 13 µmol/kg | – | – | 1300 | – | – | -11% | 0.078 µmol/kg | 0.01 µmol/kg | –
O=C1NCCN1CCN1CCN(C2CC(c3ccc(F)cc3)c3ccc(F)cc32)CC1 (stereo not given) | 0.0065 µM | 0.024 µM | 0.2 µM | > 47 µmol/kg | – | -13% | 2.6 µmol/kg | – | -19% | 153 | – | – | – | – | – | –
Cl.Cl.O=c1[nH]c2ccccc2c(=O)n1CCN1CCN(C2CC(c3ccc(F)cc3)c3ccccc32)CC1 (stereo not given) | 0.0034 µM | 0.0055 µM | 0.06 µM | > 70 µmol/kg | – | – | 0.77 µmol/kg | – | – | 7.7 | -35% | -42% | -22% | 4.4 µmol/kg | 0.1 µmol/kg | –

More lines, main results first:

IC50 [1] | IC50 [2] | IC50 (D(2) dopamine receptor) | Structure (SMILES) | ED50 (Mus musculus) | Increase (Rattus norvegicus [3]) | Reduction (Rattus norvegicus [4]) | ED50 (Rattus norvegicus [5]) | ED50 (Rattus norvegicus [6]) | Reduction (Rattus norvegicus [3]) | Ratio (Rattus norvegicus [7]) | Change (Rattus norvegicus [8]) | Change (Rattus norvegicus [9]) | Reduction (Rattus norvegicus [10]) | ED50 (Rattus norvegicus [6]; [12]) | ED50 (Rattus norvegicus [11]) | Increase (Rattus norvegicus [4])
0.0048 µM | 0.028 µM | 0.035 µM | CC(C)N1CCN(CCN2CCN(C3CC(c4ccc(F)cc4)c4ccc(F)cc43)CC2)C1=O.Cl.Cl (stereo not given) | > 73 µmol/kg | 0% | -5% | – | – | – | – | – | – | – | – | – | –
0.0056 µM | 0.012 µM | 0.046 µM | Cl.Cl.OC1=NCCN1CCCN1CCN(C2CC(c3ccc(F)cc3)c3ccc(F)cc32)CC1 (stereo not given) | 55 µmol/kg | – | -12% | 2.7 µmol/kg | 2 µmol/kg | -19% | 87 | – | – | – | – | – | –
0.044 µM | – | – | Cl.Cl.O.O=C1OCCN1CCN1CCN(C2CC(c3ccc(F)cc3)c3ccc(F)cc32)CC1 (stereo not given) | – | – | – | 4.4 µmol/kg | – | – | 5.2 | -27% | 19% | -20% | – | – | –
0.13 µM | – | – | Cl.Cl.O=C1OCCN1CCN1CCN(C2CC(c3ccc(F)cc3)c3ccccc32)CC1 (stereo not given) | > 83 µmol/kg | – | -15% | – | – | -19% | – | – | – | – | – | – | –
0.0049 µM | – | – | Fc1ccc(C2CC(N3CCN(CCN4CCN=C4S)CC3)c3cc(F)ccc32)cc1 (stereo not given) | – | – | – | – | – | – | 370 | – | – | -10% | – | 0.01 µmol/kg | –
0.0084 µM | 0.017 µM | 0.016 µM | OCCN1CCN([C@@H]2C[C@@H](c3ccc(F)cc3)c3ccc(C(F)(F)F)cc32)CC1 (racemic) [TEFLUDAZINE] | 0.071 µmol/kg | – | -18% | 2.4 µmol/kg | – | -24% | 69 | – | – | – | – | 0.035 µmol/kg | –
0.064 µM | 0.062 µM | 0.68 µM | OCCN1CCN(C2CC(c3ccc(F)cc3)c3ccccc32)CC1 (stereo not given) | > 118 µmol/kg | – | – | 3.4 µmol/kg | – | – | 10 | -15% | -12% | -27% | 0.46 µmol/kg | 0.33 µmol/kg | –
0.0029 µM | 0.0053 µM | 0.019 µM | O.O=c1[nH]c2ccccc2c(=O)n1CCN1CCN(C2CC(c3ccc(F)cc3)c3ccc(F)cc32)CC1 (stereo not given) | > 79 µmol/kg | – | -29% | 0.43 µmol/kg | 2.3 µmol/kg | -46% | 13 | -52% | -57% | – | – | 0.032 µmol/kg | –
0.31 µM | 0.56 µM | 4 µM | O.OC1=NCCN1CCN1CCN(C2CC(c3ccc(O)cc3)c3ccccc32)CC1 (stereo not given) | > 98 µmol/kg | – | -6% | – | > 49 µmol/kg | -6% | – | -5% | 22% | – | – | – | –

Reference: ChEMBL document CHEMBL1124016, “Antihypertensive activity in a series of 1-piperazino-3-phenylindans with potent 5-HT2-antagonistic activity” (J Med Chem, 1988)
